These results are taken from ChEMBL document CHEMBL5465560, “Selectivity Literature for EUbOPEN Chemogenomic Library” (2024).

For test [1], the target named is T1, Gamma-aminobutyric acid receptor subunit alpha-1 (Homo sapiens) (UniProt P14867).
T1 sequence (whole entry): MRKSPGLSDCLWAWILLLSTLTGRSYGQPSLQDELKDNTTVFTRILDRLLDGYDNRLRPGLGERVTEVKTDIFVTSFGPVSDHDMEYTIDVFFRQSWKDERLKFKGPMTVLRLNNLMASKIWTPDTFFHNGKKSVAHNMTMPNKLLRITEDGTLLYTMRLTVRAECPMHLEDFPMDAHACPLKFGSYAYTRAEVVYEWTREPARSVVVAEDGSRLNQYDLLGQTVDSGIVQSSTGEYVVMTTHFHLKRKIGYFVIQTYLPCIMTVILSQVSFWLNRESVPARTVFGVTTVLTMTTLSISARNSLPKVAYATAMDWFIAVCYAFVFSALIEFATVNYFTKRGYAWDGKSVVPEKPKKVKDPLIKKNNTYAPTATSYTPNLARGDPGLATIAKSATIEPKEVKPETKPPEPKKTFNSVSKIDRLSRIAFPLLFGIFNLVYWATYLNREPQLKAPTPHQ
The experiment in a line: Selectivity interaction (GPCR panel (PDSP screen)) EUB0001079a GABRA1. The conditions noted are these: at 10 µM.

For test [2], the target named is TGF-beta receptor type-2 (Homo sapiens) (UniProt P37173). As to the kind of experiment: Selectivity interaction (KinomeScan (DiscoverX)) EUB0001049a TGFBR2. The conditions noted are these: at 1 µM.
Test [3] concerns the target T2, Bone morphogenetic protein receptor type-2 (Homo sapiens) (UniProt Q13873).
T2 sequence (whole entry): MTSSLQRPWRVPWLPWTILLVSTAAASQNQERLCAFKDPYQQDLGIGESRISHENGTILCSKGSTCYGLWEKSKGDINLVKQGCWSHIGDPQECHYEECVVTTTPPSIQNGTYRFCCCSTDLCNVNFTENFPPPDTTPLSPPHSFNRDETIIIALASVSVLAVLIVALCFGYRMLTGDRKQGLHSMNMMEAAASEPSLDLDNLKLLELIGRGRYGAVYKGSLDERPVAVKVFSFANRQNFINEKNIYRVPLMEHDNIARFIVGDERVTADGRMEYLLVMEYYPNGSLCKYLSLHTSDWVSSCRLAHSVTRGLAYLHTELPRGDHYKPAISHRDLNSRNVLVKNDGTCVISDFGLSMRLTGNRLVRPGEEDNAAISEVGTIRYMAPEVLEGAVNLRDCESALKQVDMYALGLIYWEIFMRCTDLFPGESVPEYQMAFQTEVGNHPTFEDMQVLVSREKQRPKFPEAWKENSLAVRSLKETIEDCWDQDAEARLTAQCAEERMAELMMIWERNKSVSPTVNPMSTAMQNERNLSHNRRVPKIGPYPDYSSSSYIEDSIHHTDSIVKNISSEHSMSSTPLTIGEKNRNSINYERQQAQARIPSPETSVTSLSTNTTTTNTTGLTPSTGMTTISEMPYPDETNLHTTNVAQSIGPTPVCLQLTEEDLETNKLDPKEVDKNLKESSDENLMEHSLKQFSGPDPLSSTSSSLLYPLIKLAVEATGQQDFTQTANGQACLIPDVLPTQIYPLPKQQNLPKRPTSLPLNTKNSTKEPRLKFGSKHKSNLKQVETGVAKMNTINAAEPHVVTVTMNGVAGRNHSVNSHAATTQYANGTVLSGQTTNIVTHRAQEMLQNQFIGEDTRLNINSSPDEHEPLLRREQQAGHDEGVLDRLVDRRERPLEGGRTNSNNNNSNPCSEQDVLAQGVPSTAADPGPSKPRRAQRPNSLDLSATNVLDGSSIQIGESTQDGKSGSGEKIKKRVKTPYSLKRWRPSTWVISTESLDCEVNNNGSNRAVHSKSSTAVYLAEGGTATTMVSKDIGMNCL
As to the kind of experiment: Selectivity interaction (KinomeScan (DiscoverX)) EUB0000655a BMPR2. The conditions noted are these: at 10 µM.

Test [4] addresses T3, Interleukin-1 receptor-associated kinase 3 (Homo sapiens) (UniProt Q9Y616).
T3 sequence (whole entry): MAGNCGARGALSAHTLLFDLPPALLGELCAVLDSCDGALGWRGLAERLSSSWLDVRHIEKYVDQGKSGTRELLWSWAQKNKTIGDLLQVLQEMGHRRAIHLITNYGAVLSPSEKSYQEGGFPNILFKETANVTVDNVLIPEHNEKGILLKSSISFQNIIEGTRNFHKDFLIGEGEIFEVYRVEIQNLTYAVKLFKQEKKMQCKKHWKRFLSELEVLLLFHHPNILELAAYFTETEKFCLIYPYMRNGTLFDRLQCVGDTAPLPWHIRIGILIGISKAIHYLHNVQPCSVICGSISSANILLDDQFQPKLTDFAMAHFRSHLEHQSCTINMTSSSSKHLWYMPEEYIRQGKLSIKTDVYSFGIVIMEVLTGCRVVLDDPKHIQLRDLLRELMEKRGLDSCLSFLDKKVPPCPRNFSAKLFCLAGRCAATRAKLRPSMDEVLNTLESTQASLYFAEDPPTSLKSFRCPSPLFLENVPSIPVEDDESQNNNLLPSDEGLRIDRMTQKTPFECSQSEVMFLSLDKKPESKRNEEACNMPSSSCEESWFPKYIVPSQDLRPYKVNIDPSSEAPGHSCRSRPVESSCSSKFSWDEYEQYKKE
As to the kind of experiment: Selectivity interaction (KinomeScan (DiscoverX)) EUB0000695a IRAK3. The conditions noted are these: at 100 nM.

For test [5], the target named is cAMP-dependent protein kinase catalytic subunit beta (Homo sapiens) (UniProt P22694). As to the kind of experiment: Selectivity interaction (KinomeScan (DiscoverX)) EUB0000666a PRKACB. The conditions noted are these: at 10 µM.
The test system of test [6] is Epidermal growth factor receptor (Homo sapiens), P00533 [UNDEFINED MUTATION]. As to the kind of experiment: Selectivity interaction (LanthaScreen Eu Kinase Binding Assay) EUB0001632a EGFR. The conditions noted are these: at 10 µM. (In TR-FRET formats the signal depends on donor and acceptor labels being close together.)
Test [7] concerns the target Cyclin-dependent kinase 17 (Homo sapiens) (UniProt Q00537). The experiment in a line: Selectivity interaction (ActivX KiNativ screen (kinase selectivity in THP-1 cell lysates)) EUB0000639a CDK17. Format: subcellular. The conditions noted are these: lysate, at 0.04 µM.

Sequence of TGF-beta receptor type-2 (Homo sapiens) (P37173 whole entry): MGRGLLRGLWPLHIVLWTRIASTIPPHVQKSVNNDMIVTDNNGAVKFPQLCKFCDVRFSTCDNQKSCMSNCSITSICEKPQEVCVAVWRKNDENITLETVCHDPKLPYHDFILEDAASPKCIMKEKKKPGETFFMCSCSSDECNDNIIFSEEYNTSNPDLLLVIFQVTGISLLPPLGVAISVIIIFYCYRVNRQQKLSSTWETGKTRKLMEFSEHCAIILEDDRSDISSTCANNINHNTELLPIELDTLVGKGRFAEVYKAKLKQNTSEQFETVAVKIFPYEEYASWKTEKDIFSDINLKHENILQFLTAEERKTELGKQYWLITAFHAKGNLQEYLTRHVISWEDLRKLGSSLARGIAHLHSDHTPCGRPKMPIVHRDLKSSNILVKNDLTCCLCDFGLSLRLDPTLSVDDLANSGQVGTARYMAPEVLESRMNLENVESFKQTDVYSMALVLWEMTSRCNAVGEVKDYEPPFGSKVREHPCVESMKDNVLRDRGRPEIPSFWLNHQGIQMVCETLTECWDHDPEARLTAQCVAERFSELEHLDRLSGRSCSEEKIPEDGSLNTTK
Sequence of Cyclin-dependent kinase 17 (Homo sapiens) (Q00537 whole entry, looked up): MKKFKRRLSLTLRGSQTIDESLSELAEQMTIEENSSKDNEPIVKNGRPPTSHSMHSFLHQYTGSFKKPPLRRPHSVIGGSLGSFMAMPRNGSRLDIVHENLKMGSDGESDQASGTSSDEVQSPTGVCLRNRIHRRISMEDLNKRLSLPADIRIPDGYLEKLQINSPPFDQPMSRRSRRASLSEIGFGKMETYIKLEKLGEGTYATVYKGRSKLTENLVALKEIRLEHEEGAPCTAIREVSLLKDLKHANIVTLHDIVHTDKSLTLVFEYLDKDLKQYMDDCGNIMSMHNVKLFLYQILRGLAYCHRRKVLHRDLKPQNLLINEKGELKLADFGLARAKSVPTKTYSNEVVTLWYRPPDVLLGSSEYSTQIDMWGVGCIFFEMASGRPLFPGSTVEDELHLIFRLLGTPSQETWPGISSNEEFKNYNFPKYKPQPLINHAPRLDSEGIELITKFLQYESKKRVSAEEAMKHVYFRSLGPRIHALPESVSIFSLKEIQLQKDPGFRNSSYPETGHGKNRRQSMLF
Sequence of Epidermal growth factor receptor (Homo sapiens), P00533 [UNDEFINED MUTATION] (P00533 whole entry, looked up, change not shown): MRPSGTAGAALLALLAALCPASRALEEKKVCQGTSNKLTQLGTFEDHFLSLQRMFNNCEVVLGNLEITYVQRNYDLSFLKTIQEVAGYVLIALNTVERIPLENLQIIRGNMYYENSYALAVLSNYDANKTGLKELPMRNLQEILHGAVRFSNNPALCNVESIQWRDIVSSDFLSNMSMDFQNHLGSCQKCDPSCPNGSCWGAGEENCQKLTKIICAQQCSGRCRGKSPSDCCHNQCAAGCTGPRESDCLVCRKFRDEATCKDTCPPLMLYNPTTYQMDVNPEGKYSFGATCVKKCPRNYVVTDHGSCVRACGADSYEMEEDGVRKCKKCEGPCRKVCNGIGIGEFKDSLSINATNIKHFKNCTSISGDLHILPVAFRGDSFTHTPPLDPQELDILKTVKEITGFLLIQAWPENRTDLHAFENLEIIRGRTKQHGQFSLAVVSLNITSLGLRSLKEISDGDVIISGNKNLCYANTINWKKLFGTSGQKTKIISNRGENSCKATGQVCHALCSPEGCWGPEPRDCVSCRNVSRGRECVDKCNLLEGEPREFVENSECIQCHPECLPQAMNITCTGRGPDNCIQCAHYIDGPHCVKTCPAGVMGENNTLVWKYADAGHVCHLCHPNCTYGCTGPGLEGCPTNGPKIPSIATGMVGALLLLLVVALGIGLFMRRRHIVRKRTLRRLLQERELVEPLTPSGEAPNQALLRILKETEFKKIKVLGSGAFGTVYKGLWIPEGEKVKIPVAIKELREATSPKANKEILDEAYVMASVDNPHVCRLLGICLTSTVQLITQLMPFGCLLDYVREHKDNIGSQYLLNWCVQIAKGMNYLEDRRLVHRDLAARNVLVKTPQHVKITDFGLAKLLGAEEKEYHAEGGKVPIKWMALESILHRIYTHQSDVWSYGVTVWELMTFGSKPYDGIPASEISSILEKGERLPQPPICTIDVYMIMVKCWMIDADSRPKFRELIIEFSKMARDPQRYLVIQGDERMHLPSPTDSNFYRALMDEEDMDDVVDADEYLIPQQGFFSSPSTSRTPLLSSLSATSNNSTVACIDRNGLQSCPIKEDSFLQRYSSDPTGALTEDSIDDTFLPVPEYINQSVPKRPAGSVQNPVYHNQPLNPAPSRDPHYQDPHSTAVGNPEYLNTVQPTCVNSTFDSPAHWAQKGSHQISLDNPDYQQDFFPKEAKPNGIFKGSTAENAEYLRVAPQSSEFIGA

Take `Nc1cnc(N2CCc3cc(S(=O)(=O)Nc4c(F)cc(Cl)cc4F)cc(N4CCCC4=O)c32)nc1` [TP-020n]: in test [1], the % of inhibition was -1.96%.

Take `COc1cc(Nc2nc(C)cc(-c3cnn4nc(OC)ccc34)n2)cc(C(F)(F)F)c1`: in test [2], the % of control was determined as 100%.

`CN(C)CCOc1ccc(-c2nc(-c3ccncc3)c(-c3ccc4c(c3)CC/C4=N\O)[nH]2)cc1` displayed a % of control in test [3] of 47%.

In turn, `Cc1cc(F)c(C(=O)Nc2cccc(-c3nncn3C(C)C)n2)cc1-n1cnc(C2CC2)c1` came in with a % of control in test [4] of 100%.

The compound `O=C(NOC[C@H](O)CO)c1ccc(F)c(F)c1Nc1ccc(I)cc1F` came in with a % of control in test [5] of 98%.

For the compound `Cn1cc(-n2cnc3c(NCc4nc5cc(Cl)c(Cl)cc5[nH]4)nc(N4CCOCC4)nc32)cn1`, in test [6], the % of inhibition was -12%.

In the case of `CC[C@@H]1[C@H](F)C(=O)N[C@@H]1COc1nccc2cc(C(N)=O)c(OC)cc12` [ZIMLOVISERTIB], the % of inhibition in test [7] was determined as 1.7%.
